According to patent US20180360782A1, “METHOD OF MODULATING RIBONUCLEOTIDE REDUCTASE” (CASE WESTERN RESERVE UNIVERSITY, priority 2015, published 2018):
Like-named read-outs stand apart in the source and are kept apart here.

Assays:
Panc1 = assay: Time dependence of growth inhibitory activity, Panc1; assay type: cell-based; settings: Homo sapiens, PANC-1
HCT116 = assay: Time dependence of growth inhibitory activity, HCT116; assay type: cell-based; settings: Homo sapiens, HCT-116
Method: (§1) The growth inhibition assay was performed in the Preclinical Drug Testing Laboratory of the Case Comprehensive Cancer Center using a standardized protocol. Cell lines (human colon cancer HCT116 and human breast cancer MDA-MB-231 cells) were maintained in standard growth media; RPMI1640+10% FBS+2 mM glutamine+100U/ml penicillin, 100 ug/ml streptomycin and shown to be negative for mycoplasma contamination using the MycoAlert™ Mycoplasma Detection kit (Lonza, Basel, Switzerland). Cell identity was verified by Short Tandem Repeat (STR) testing performed using the Promega StemElite kit, in the Genetic Resources Core Facility (GRCF) at Johns Hopkins University.
(§2) For growth inhibition assays, cells were harvested by trypsinization and seeded into 96-well tissue culture plates at 2500 cells/mL. The following day an equal volume of 2×-drug containing medium was added to each well. […] Cell growth was assessed by measuring DNA content per well using the method of Labarca and Paigen. Dye fluorescence was measured in a Perkin-Elmer 1420 Victor3 Multilabel plate reader using 355 nm excitation and 460 nm emission.

[1] = test system: MDA-MB-231, HCT116, A549 and Panc1 cell lines; assay: Detailed growth inhibition studies, median effect dose; assay type: cell-based; settings: Homo sapiens, 72 h, read-out: median effect dose (Dm), growth inhibitory activity
Method: Cell were maintained in standard tissue culture media (RPMI1640, +10% fetal bovine serum, plus antibiotic) and grown in a standard humidified 5% CO2 incubator at 37° C. […] For moderate throughput screening (up to 120 drugs per experiment), cells were seeded into 96 well plates and allowed to attach overnight. The following day media was removed and replaced with fresh compound containing media. Each compound was tested against both cell lines at 3 concentrations; 1 μM, 10 μM and 50 μM, in duplicate. Cells were incubated with compound containing media for three days in a standard 5% CO2 tissue culture incubator. Cell growth was assessed after 3 days using the DNA dye binding assay, as originally described by LaBarca and Paigen. Relative growth was independently calculated for each cell line, based on DNA content from corresponding cells grown in control media plus diluent (DMSO). […] The following day media was removed and replaced with drug containing media.
Over 190 compounds were screened for their ability to inhibit growth and/or induce cell death in established cancer cell lines.

MDA-231 = assay: Time dependence of growth inhibitory activity, MDA-231; assay type: cell-based; settings: Homo sapiens, MDA-MB-231
Method: as §1, §2

MDA-MB-231 = assay: Combination experiment: gemcitabine with sublethal compound 2; settings: Homo sapiens, MDA-MB-231, read-out: Dm, Gemcitabine alone
[2] = Metal chelation by UV spectroscopy titration, Mg2+; assay type: physicochemical; settings: 100 μM ligand, 10 mM ammonium acetate pH 7.0, metal 100 μM to 1 mM
From the text: There have been multiple reports of small molecule agents inhibiting RR through the scavenging of free radicals that are required for the reduction of nucleotide diphosphates. Nitric oxide and hydroxyurea (that quench the tyrosyl free radicals), and iron chelating small molecules such as desferrioxamine (that irreversibly chelate to Fe-(II) that is essential for -housing the free radicals) are a few examples. […] Therefore to test this hypothesis, the propensity of NSAAH-E-3A to bind to Mg^2+ and Fe^2+ (both present in the inhibition assay previously described) was determined by UV spectroscopy. In 10 mM ammonium acetate buffer (pH 7.0), a 100 μM solution of NSAAH-E-3A was titrated against FeCl2.6H2O and MgCl2.6H2O idependently at varying concentrations of metal ranging from 100 μM to 1 mM. The stoichiometry of NSAAH-E-3A : M^2+ tested were 1:1, 1:2, 1:3, 1:4, 1:5, 1:6, 1:7, 1:8, 1:9, and 1:10. A scanning UV […] spectrum was recorded between 200-800 nm at each concentration. Noticeable changes occurred -when NSAAH-E-3A was subjected to a titration with FeCl2.6H2O at concentrations of metal ranging from 600 μM to 1 mM. […] Similarly, a titration experiment was carried against Mg^2+ salt at concentrations of metal ranging from 100 μM to 1 mM at stoichiometry of 1:1, 1:2, 1:3, 1:4, 1:5, 1:6, 1:7, 1:8, 1:9, and 1:10.

[3] = test system: normal mobilized peripheral blood progenitor cells; assay: Blood progenitor colony forming unit (CFU) assay; assay type: cell-based, human; settings: 14 days
Method: The CFU assay was performed in the Hematopoietic Biorepository and Cellular Therapy Core Facility of the Case Comprehensive Cancer Center using a standardized protocol.
Briefly, mobilized peripheral blood mononuclear cells were collected from healthy donors by apheresis after Neupogen stimulation under University Hospitals IRB Protocol #09-90-195. Excess discarded cells were diluted to 1(10^6) cells/mL in RPMI1640+15% fetal bovine serum, 100 U/mL penicillin, 100 μg/mL streptomycin and 50.4 units/ml GM-CSF. Drug solution was added to the cell suspension and 9× volume of complete methylcellulose (Methocult H4434+50 μM hemin.). The methylcellulose/cell suspension was aliquoted into triplicate 35-mm gridded tissue culture plates and incubated in a humidified 5% CO2 incubator at 37° C. for 14 days. Plates were counted visually and clusters of >50 cells were scored as surviving colonies.

[4] = test system: MDA-MB-231 and HCT-116 cell lines; assay: Growth inhibition screening assay (In Cell IC50); assay type: cell-based, human; settings: Homo sapiens, 72 h; 3 days with compound
Method: (§3) Cell were maintained in standard tissue culture media (RPMI1640, +10% fetal bovine serum, plus antibiotic) and grown in a standard humidified 5% CO2 incubator at 37° C. Cells were regularly tested using the MycoAlert detection kit (Lonza Biologics) and shown to be mycoplasma-free. Initial compound screening was performed using both MDA-MB-23 land HCT-116 cell lines. For moderate throughput screening (up to 120 drugs per experiment), cells were seeded into 96 well plates and allowed to attach overnight. The following day media was removed and replaced with fresh compound containing media. Each compound was tested against both cell lines at 3 concentrations; 1 μM, 10 μM and 50 μM, in duplicate. Cells were incubated with compound containing media for three days in a standard 5% CO2 tissue culture incubator. Cell growth was assessed after 3 days using the DNA dye binding assay, as originally described by LaBarca and Paigen. Relative growth was independently calculated for each cell line, based on DNA content from corresponding cells grown in control media plus diluent (DMSO). Additional growth inhibition experiments utilized either the DNA binding assay or the Promega CellTiter 96® (MTT reduction) assay, with similar results. For detailed growth inhibition assays, cells (1500-2500 depending on the growth characteristics of the cell line) were seeded in standard 96 well tissue culture plates and allowed to attach overnight. The following day media was removed and replaced with drug containing media. Each dose group consisted of 5 replicate wells, and results are reported a Relative Growth, calculated as DNA or MTT reduction per well, divided by the signal from untreated cells, both harvested 3 days after drug administration.

select cancer cell lines = assay: Cellular IC50 of NSAAH library (Table 3); assay type: cell-based
Method: as §3

IC50 ([1]; set of four cell lines, 3 days) [nM] | Structure (SMILES) | IC50 (Panc1; Panc1, Drug Exposure 2 hr) [nM] | IC50 (Panc1; Panc1, Drug Exposure 6 hr) [nM] | IC50 (Panc1; Panc1, Drug Exposure 24 hr) [nM] | IC50 (Panc1; Panc1, Drug Exposure 72 hr) [nM] | IC50 (HCT116; HCT116, Drug Exposure 2 hr) [nM] | IC50 (HCT116; HCT116, Drug Exposure 6 hr) [nM] | IC50 (HCT116; HCT116, Drug Exposure 24 hr) [nM] | IC50 (HCT116; HCT116, Drug Exposure 72 hr) [nM] | IC50 (MDA-231; MDA-231, Drug Exposure 2 hr) [nM] | IC50 (MDA-231; MDA-231, Drug Exposure 6 hr) [nM] | IC50 (MDA-231; MDA-231, Drug Exposure 24 hr) [nM] | IC50 (MDA-231; MDA-231, Drug Exposure 72 hr) [nM] | IC50 (MDA-MB-231) [nM] | ligand:Mg^2+ stoichiometry at which the UV spectrum shows binding [2] | cytotoxicity against normal blood progenitor cells [3] | IC50 [4] [nM] | IC50 [1] [nM] | IC50 (select cancer cell lines) [nM]
500 to 1000 | Nc1ccn([C@@H]2O[C@H](CO)[C@@H](O)C2(F)F)c(=O)n1 [Gemcitabine, reference compound] | 680 | 406 | 84 | 46 | 487 | 343 | 58 | 30 | 1930 | 1540 | 274 | 100 | 920 | – | – | – | – | –
– | O=C(N/N=C/c1c(O)ccc2ccccc12)c1ccccc1O [compound 3, (E)-2-hydroxy-N′-((2-hydroxynaphthalenyl)methylene) benzohydrazide] | > 10000 | > 10000 | 898 | 442 | > 10000 | > 10000 | 572 | 221 | > 10000 | > 10000 | 658 | 498 | – | no noticeable change | little measurable cytotoxicity | 380 | 500 to 1000 | 0.225
